Test results published in patent US20260364184A1, “COMPOUND BASED ON OXOISOINDOLINYL-SUBSTITUTED TETRAHYDROPYRIMIDINE-DIONE AND USE THEREOF” (GLUETACS THERAPEUTICS (SHANGHAI) CO., LTD., priority 2023, published 2026).
Blank lines part the entries; values can stand above or below the compound they belong to.

Legend:
BRG1 = molecular target: T1, BRG1 (Homo sapiens, UniProt P51532); test: Western blot degradation of BRG1 (SMARCA4); format: cell-based; conditions: Molt-4 Cell; 24 hours
T1 construct: expression of target proteins in cells; endogenous in cells
T1 sequence (P51532 whole entry): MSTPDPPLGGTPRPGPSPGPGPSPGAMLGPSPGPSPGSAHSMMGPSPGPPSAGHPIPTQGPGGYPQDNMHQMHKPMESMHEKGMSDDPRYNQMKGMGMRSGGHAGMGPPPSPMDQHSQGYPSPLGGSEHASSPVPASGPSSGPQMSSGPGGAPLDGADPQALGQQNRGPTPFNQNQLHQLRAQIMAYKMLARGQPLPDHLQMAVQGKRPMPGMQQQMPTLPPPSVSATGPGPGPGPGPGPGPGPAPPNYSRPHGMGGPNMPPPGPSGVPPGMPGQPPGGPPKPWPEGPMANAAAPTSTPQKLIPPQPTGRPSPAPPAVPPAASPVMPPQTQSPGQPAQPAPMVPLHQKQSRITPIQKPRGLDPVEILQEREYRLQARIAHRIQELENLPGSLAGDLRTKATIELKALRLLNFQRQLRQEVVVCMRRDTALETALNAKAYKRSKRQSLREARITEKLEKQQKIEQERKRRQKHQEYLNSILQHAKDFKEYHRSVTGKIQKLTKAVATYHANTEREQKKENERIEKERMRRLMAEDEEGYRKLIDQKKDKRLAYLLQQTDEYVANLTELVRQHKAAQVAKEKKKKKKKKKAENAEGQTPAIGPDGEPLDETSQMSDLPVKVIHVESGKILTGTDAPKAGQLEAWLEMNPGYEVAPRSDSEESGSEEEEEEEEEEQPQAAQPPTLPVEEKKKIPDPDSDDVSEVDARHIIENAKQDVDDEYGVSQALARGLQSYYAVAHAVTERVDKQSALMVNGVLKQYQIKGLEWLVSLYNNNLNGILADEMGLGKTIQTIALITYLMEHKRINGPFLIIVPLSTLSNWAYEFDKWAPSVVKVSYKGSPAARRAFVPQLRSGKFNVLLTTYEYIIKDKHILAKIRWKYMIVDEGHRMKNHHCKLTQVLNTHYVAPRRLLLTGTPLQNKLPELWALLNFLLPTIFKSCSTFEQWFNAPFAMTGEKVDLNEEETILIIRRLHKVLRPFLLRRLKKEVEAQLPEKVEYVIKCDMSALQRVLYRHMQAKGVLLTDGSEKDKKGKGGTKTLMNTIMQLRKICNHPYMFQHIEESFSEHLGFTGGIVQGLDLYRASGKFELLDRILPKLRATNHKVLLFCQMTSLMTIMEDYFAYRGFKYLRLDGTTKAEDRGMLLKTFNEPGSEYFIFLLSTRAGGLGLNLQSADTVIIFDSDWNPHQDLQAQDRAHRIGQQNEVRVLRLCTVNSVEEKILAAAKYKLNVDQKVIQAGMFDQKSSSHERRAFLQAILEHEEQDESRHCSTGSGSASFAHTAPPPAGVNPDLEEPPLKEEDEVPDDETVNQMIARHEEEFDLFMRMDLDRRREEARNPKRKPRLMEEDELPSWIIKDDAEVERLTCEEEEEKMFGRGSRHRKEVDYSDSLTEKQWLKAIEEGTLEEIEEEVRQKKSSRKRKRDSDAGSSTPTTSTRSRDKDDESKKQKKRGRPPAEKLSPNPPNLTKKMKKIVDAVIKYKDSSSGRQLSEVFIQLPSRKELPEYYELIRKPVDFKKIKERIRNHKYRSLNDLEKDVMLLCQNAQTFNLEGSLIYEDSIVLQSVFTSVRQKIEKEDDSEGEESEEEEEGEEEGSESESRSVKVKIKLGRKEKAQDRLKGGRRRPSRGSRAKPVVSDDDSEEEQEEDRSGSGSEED
Method: (§1) Conventional Western blot assay was performed to evaluate the effects of the compounds of the present disclosure on the expression of target proteins in cells.
(§2) (1) Cell Seeding and Protein Harvesting: The selected cells were processed according to the cell seeding procedure and protein harvesting procedure in Table II-2.
(§3) (2) To the collected supernatant, 5×SDS sample loading buffer was added, followed by denaturation at 95 °C for 5 minutes. The denatured samples were then separated by SDS-PAGE electrophoresis on a polyacrylamide gel. Proteins were transferred to a nitrocellulose membrane (0.45 μm NC membrane), blocked with blocking buffer at room temperature for 1 hour, and subjected to antibody incubation and development procedures according to the antibody manufacturer's instructions (Cell Signaling Technology).
(§4) Half-Maximal Degradation Concentration value (the drug concentration required for degrading proteins by 50%, abbreviated as DC50) reads method: comparing the grayscale values of Western blot bands from drug-treated samples with those from blank DMSO-treated controls, and identifying the drug concentration range at which the grayscale value is half that of the DMSO-treated control bands.
(§5) DC50 values can be calculated using ImageJ software to measure grayscale values of Western blot bands from drug-treated samples. The concentration-response curve is fitted to estimate the drug concentration corresponding to half the grayscale value.
(§6) Target protein remaining (%) refers to the percentage of target protein remaining in cells after treatment with protein degrader compounds.
(§7) Calculation method for target protein remaining (%): Use ImageJ software to measure grayscale values of Western blot bands from drug (protein degrader)-treated samples. The grayscale value of drug-treated bands is divided by that of internal control protein bands, and the resulting quotient is normalized to obtain the relative percentage of remaining target protein after protein degrader treatment.
(§8) Target protein degradation rate (%)=1−target protein remaining (%).

BRM = molecular target: T2, BRM (Homo sapiens, UniProt P51531); test: Western blot degradation of BRM (SMARCA2); format: cell-based; conditions: Molt-4 Cell; 24 hours
T2 construct: expression of target proteins in cells; endogenous in cells
T2 sequence (P51531 whole entry): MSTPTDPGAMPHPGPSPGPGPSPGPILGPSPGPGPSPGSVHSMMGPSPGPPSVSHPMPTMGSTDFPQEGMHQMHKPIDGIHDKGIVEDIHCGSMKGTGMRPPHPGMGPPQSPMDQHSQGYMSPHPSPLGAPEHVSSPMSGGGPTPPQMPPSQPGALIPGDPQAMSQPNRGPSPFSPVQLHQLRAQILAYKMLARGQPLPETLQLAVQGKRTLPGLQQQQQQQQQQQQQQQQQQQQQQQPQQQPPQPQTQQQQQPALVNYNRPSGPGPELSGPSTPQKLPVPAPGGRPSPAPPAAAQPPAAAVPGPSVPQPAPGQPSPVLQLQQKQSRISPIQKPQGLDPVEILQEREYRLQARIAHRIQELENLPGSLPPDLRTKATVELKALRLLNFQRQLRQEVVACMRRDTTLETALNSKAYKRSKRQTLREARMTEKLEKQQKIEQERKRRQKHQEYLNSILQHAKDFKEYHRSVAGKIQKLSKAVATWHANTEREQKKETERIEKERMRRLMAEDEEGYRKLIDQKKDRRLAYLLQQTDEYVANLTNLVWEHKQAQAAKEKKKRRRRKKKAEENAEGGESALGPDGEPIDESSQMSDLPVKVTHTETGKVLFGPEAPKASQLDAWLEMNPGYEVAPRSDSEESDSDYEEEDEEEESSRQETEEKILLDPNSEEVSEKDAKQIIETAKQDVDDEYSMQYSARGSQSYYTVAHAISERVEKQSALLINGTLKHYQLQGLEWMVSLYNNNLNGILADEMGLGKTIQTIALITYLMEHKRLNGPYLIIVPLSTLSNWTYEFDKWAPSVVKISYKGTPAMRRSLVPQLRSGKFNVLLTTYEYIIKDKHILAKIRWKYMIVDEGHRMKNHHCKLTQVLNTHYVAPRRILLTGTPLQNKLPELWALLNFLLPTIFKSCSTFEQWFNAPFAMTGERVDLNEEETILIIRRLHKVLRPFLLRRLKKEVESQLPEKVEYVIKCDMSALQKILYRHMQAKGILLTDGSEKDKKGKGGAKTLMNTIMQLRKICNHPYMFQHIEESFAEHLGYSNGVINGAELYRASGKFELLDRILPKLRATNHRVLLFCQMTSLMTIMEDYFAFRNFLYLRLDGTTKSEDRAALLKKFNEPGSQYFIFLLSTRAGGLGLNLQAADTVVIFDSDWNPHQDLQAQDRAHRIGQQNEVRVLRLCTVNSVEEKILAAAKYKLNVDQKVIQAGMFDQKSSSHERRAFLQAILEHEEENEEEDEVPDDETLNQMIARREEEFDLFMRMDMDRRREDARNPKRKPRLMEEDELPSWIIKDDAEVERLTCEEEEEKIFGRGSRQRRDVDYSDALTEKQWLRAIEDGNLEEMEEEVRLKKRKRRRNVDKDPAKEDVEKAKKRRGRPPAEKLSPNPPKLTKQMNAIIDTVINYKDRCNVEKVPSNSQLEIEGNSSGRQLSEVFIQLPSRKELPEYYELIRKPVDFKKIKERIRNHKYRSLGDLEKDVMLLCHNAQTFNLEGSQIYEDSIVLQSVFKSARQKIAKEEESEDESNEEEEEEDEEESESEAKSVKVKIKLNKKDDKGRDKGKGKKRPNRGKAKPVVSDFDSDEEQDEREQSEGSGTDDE
Method: as §1, §2, §3, §4, §5, §6, §7, §8

[1] = system: Human prostate cancer cell line (NCI-H358); test: Inhibition of NCI-H358 cell proliferation (CellTiter luminescent viability); conditions: Table IH1, BCL-2 inhibitor-based, 96 hours; for inhibition at 0.01 µM: NCI-H358, 10 nM, read-out: Inhibition Rate at 10 nM (%); for inhibition at 0.5 µM: NCI-H358, 500 nM, read-out: Inhibition Rate at 500 nM (%)
Method: (§9) The tumor cells used herein were cultured in a cell culture medium listed in table 3 at 37 °C in an incubator with 5% CO2. Prior to experimentation, all cell lines used were correctly identified by STR profiling, and tested negative for mycoplasma contamination using a mycoplasma detection kit through routine screenings.
(§10) The IC50 values of the compounds of the present disclosure (including the compounds in Table 1, Table 2, and Examples 1-468) were determined using the CellTiter-Meiluncell Luminescent Cell Viability Assay Kit from Dalian Meilun Biotech Co., Ltd. The detailed procedure is as follows: Tumor cells were seeded in 96-well cell culture plates at the densities specified in Table 4. On the following day, the test compounds of the present disclosure were subjected to serial dilution. The dilution can be performed according to one of the following two methods: • (1) The first dilution method: The test compounds of the present disclosure (including the compounds in Table 1, Table 2, and Examples 1-468) were subjected to 5-fold serial dilutions starting from a highest concentration of 2000 μM, resulting in a total of 9 concentrations from high to low (2000, 400, 80, 16, 3.2, 0.64, 0.128, 0.0256, 0.00512 μM). Subsequently, 0.5 μL of the test compound dilution was transferred into the 96-well plate containing the cells, with each well containing 100 μL of cell culture medium. […] Into the 96-well plate, the diluted test compounds and corresponding detection reagents were added, resulting in final test compound concentrations of 500 nM and 10 nM, respectively. The experimental procedure is described below using the diluted 2 μM test compound as an example.
(§11) 0.5 μL of the aforementioned diluted compound of the present disclosure (including the compounds in Table 1, Table 2, and Examples 1-468) was added to the seeded cells in 100 μL of medium, yielding a final test compound concentration of 10 nM. After the cells were treated with the compounds of the present disclosure for a specified period, the cell viability assay reagent was added to the culture medium according to the kit's instructions to determine cell viability. […] All controls were treated using the same procedure as the compounds of the present disclosure. The growth inhibition curves for the compounds of the present disclosure were plotted using Prism GraphPad software, and the IC50 values were calculated therefrom.

[2] = system: Human acute lymphocytic leukemia T lymphocytes cell line (CCRF-CEM); test: Inhibition of CCRF-CEM cell proliferation (CellTiter luminescent viability); format: cell-based; conditions: Homo sapiens, 96 h, Table IH2, BCL-2 inhibitor-based; for inhibition at 0.01 µM: 10 nM, read-out: Inhibition Rate at 10 nM (%); for inhibition at 0.5 µM: 500 nM, read-out: Inhibition Rate at 500 nM (%)
[3] = system: Human Acute T Lymphoblastic Leukemia Cells (Molt-4); test: Inhibition of Molt-4 cell proliferation (CellTiter luminescent viability); format: cell-based; conditions: Homo sapiens, MOLT-4, 96 h, Table IH3, BCL-2 inhibitor-based, 96 hours; for inhibition at 0.01 µM: Molt-4, 10 nM, read-out: Inhibition Rate at 10 nM (%); for inhibition at 0.5 µM: Molt-4, 500 nM, read-out: Inhibition Rate at 500 nM (%)
[4] = system: Human neuroblastoma cell line (SK-N-AS); test: Inhibition of SK-N-AS cell proliferation (CellTiter luminescent viability); format: cell-based; conditions: Table IK1, AKT inhibitor-based, 96 hours; for inhibition at 0.01 µM: 10 nM, read-out: Inhibition Rate at 10 nM (%); for inhibition at 0.5 µM: 500 nM, read-out: Inhibition Rate at 500 nM (%)
Method: as §9, §10, §11

AKT = test: Western blot degradation of AKT; format: cell-based; conditions: hPBMC Cell; 24 hours
Method: as §1, §2, §3, §4, §5, §6, §7, §8

Compound: Nc1nnc(-c2ccccc2O)cc1N1CCN(CC2CCN(C3CCN(c4ccc5c(c4)C(=O)N(N4CCC(=O)NC4=O)C5=O)CC3)CC2)CC1 [GT-05095, 5-(4-((4-(3-amino-6-(2-hydroxyphenyl)pyridazin-4-yl)piperazin-1-yl)methyl)-[1,4′-bipiperidin]-1′-yl)-2-(2,4-dioxotetrahydropyrimidin-1(2H)-yl)isoindoline-1,3-dione]
- Degradation of substrate protein BRG1 (substrate protein remaining %) (BRG1): B (80%<substrate protein remaining %≤100%)
- Degradation of substrate protein BRM (substrate protein remaining %) (BRM): A (0%≤substrate protein remaining %≤80%)

Compound: Nc1nnc(-c2cc(F)ccc2O)cc1N1CCN(CC2CCN(C3CCN(c4ccc5c(c4)C(=O)N(N4CCC(=O)NC4=O)C5=O)CC3)CC2)CC1 [GT-05094, 5-(4-((4-(3-amino-6-(5-fluoro-2-hydroxyphenyl)pyridazin-4-yl)piperazin-1-yl)methyl)-[1,4′-bipiperidin]-1′-yl)-2-(2,4-dioxotetrahydropyrimidin-1(2H)-yl)isoindoline-1,3-dione]
- Degradation of substrate protein BRG1 (substrate protein remaining %) (BRG1): B (80%<substrate protein remaining %≤100%)
- Degradation of substrate protein BRM (substrate protein remaining %) (BRM): A (0%≤substrate protein remaining %≤80%)

Compound: CC1(C)CCC(CN2CCN(c3ccc(C(=O)NS(=O)(=O)c4ccc(NCC5CCOCC5)c([N+](=O)[O-])c4)c(Oc4cnc5[nH]ccc5c4)c3)CC2)=C(c2ccc(Cl)cc2)C1 [ABT-199, Venetoclax, reference compound]
- inhibition at 0.01 µM [1]: 5 to 10%
- inhibition at 0.5 µM [1]: 5 to 10%
- inhibition at 0.01 µM [2]: -5 to 0%
- inhibition at 0.5 µM [2]: -5 to 0%
- inhibition at 0.01 µM [3]: -5 to 0%
- inhibition at 0.5 µM [3]: 30 to 40%

Compound: Cn1ncc(Cl)c1-c1cc(C(=O)N[C@H](CNCc2ccc3c(c2)CN(N2CCC(=O)NC2=O)C3=O)Cc2ccc(F)c(F)c2)oc1Cl [GT-08574, (S)-5-chloro-4-(4-chloro-1-methyl-1H-pyrazol-5-yl)-N-(1-(3,4-difluorophenyl)-3-(((2-(2,4-dioxotetrahydropyrimidin-1(2H)-yl)-1-oxoisoindolin-5-yl)methyl)amino)propan-2-yl) furan-2-carboxamide]
- inhibition at 0.01 µM [4]: 5 to 10%
- inhibition at 0.5 µM [4]: 20 to 30%
- Degradation of substrate protein AKT (substrate protein remaining %) (AKT): A (0%≤substrate protein remaining %≤80%)

Compound: Nc1nnc(-c2cc(F)ccc2O)cc1N1CCN(CC2CCN(c3ccc4c(c3)C(=O)N(N3CCC(=O)NC3=O)C4=O)CC2)CC1 [GT-05068, 5-(4-((4-(3-amino-6-(5-fluoro-2-hydroxyphenyl)pyridazin-4-yl)piperazin-1-yl)methyl)piperidin-1-yl)-2-(2,4-dioxotetrahydropyrimidin-1(2H)-yl)isoindoline-1,3-dione]
- Degradation of substrate protein BRG1 (substrate protein remaining %) (BRG1): B (80%<substrate protein remaining %≤100%)
- Degradation of substrate protein BRM (substrate protein remaining %) (BRM): A (0%≤substrate protein remaining %≤80%)

Compound: Cn1ncc(Cl)c1-c1cc(C(=O)N[C@@H](Cc2cccc(F)c2)CN2CCN(Cc3ccc4c(c3)CN(N3CCC(=O)NC3=O)C4=O)CC2)sc1Cl [GT-08576, (S)-5-chloro-4-(4-chloro-1-methyl-1H-pyrazol-5-yl)-N-(1-(4-((2-(2,4-dioxotetrahydropyrimidin-1(2H)-yl)-1-oxoisoindolin-5-yl)methyl)piperazin-1-yl)-3-(3-fluorophenyl)propan-2-yl)thiophene-2-carboxamide]
- inhibition at 0.01 µM [4]: 15 to 20%
- inhibition at 0.5 µM [4]: 20 to 30%
- Degradation of substrate protein AKT (substrate protein remaining %) (AKT): A (0%≤substrate protein remaining %≤80%)

Compound: CC1(C)CCC(c2ccc(Cl)cc2)=C(CN2CCN(c3ccc(C(=O)NS(=O)(=O)c4ccc(N[C@H](CCN5CC6CCC(C5)N6Cc5ccc6c(c5)CN(N5CCC(=O)NC5=O)C6=O)CSc5ccccc5)c(S(=O)(=O)C(F)(F)F)c4)cc3)CC2)C1 [GT-07813, 4-(4-((4′-chloro-4,4-dimethyl-3,4,5,6-tetrahydro-[1,1′-biphenyl]-2-yl)methyl)piperazin-1-yl)-N-((4-(((2R)-4-(8-((2-(2,4-dioxotetrahydropyrimidin-1(2H)-yl)-1-oxoisoindolin-5-yl)methyl)-3,8-diazabicyclo[3.2.1]octan-3-yl)-1-(phenylthio)butan-2-yl)amino)-3-((trifluoromethyl)sulfonyl)phenyl)sulfonyl)benzamide]
- inhibition at 0.01 µM [1]: 15 to 20%
- inhibition at 0.5 µM [1]: 20 to 30%
- inhibition at 0.01 µM [2]: 5 to 10%
- inhibition at 0.5 µM [2]: 60 to 70%
- inhibition at 0.01 µM [3]: 10 to 15%
- inhibition at 0.5 µM [3]: 80 to 100%

Compound: Nc1nnc(-c2cc(F)ccc2O)cc1N1CCN(CC2CCN(c3cccc4c3C(=O)N(N3CCC(=O)NC3=O)C4=O)CC2)CC1 [GT-05069, 4-(4-((4-(3-amino-6-(5-fluoro-2-hydroxyphenyl)pyridazin-4-yl)piperazin-1-yl)methyl)piperidin-1-yl)-2-(2,4-dioxotetrahydropyrimidin-1(2H)-yl)isoindoline-1,3-dione]
- Degradation of substrate protein BRG1 (substrate protein remaining %) (BRG1): A (0%≤substrate protein remaining %≤80%)
- Degradation of substrate protein BRM (substrate protein remaining %) (BRM): A (0%≤substrate protein remaining %≤80%)

Further lines, with some results ahead:

- Degradation of substrate protein BRM (substrate protein remaining %) (BRM): A (0%≤substrate protein remaining %≤80%)
Compound: Nc1nnc(-c2ccccc2O)cc1N1CCN(CC2CCN(c3cccc4c3C(=O)N(N3CCC(=O)NC3=O)C4=O)CC2)CC1 [GT-05070, 4-(4-((4-(3-amino-6-(2-hydroxyphenyl)pyridazin-4-yl)piperazin-1-yl)methyl)piperidin-1-yl)-2-(2,4-dioxotetrahydropyrimidin-1(2H)-yl)isoindoline-1,3-dione]
- Degradation of substrate protein BRG1 (substrate protein remaining %) (BRG1): B (80%<substrate protein remaining %≤100%)

- Degradation of substrate protein BRM (substrate protein remaining %) (BRM): A (0%≤substrate protein remaining %≤80%)
Compound: Nc1nnc(-c2ccccc2O)cc1N1CCN(Cc2ccc3c(c2)C(=O)N(N2CCC(=O)NC2=O)C3=O)CC1 [GT-05071, 5-((4-(3-amino-6-(2-hydroxyphenyl)pyridazin-4-yl)piperazin-1-yl)methyl)-2-(2,4-dioxotetrahydropyrimidin-1(2H)-yl)isoindoline-1,3-dione]
- Degradation of substrate protein BRG1 (substrate protein remaining %) (BRG1): B (80%<substrate protein remaining %≤100%)

- Degradation of substrate protein BRG1 (substrate protein remaining %) (BRG1): A (0%≤substrate protein remaining %≤80%)
- Degradation of substrate protein BRM (substrate protein remaining %) (BRM): A (0%≤substrate protein remaining %≤80%)
Compound: Nc1nnc(-c2ccccc2O)cc1N1CCN(Cc2ccc3c(c2)CN(N2CCC(=O)NC2=O)C3=O)CC1 [GT-04952, 1-(5-((4-(3-amino-6-(2-hydroxyphenyl)pyridazin-4-yl)piperazin-1-yl)methyl)-1-oxoisoindolin-2-yl)dihydropyrimidine-2,4 (1H,3H)-dione]
